The results in this text go back to US10550120B2, “Indole alkaloid compound having immune checkpoint inhibitory action” (TOHOKU UNIVERSITY, priority 2016, dated 2020).

For one experiment, the system named is IL-10. Nature of the experiment: Measurement of human IL-10 amount in culture supernatant of MT2 cells with ELISA kit (Test 1). The class given is cell-based. The conditions noted are these: 48±2 hours; for activity at 12.5 µM / activity at 25 µM / activity at 10 µM / activity at 20 µM: Homo sapiens, 48 h, DMSO control = 100%, read-out: % against control (IL-10 production). Here is the method:
(§1) MT2 cells from human adult T-cell leukemia were used. Leukemia cells of human adult T-cell leukemia (ATL) express CD4 and CD25 molecules on the cell surface and are considered to be derived from Treg (Chen S. et al., International Immunology 18:269-277 (2005)). MT2 cells were used in experiments as models of Treg since the cells are CD4 positive, CD25 positive, and FOXP3 positive celles derived from ATL.
(§2) The example compounds (compounds 1-17) of the present invention were dissolved in dimethylsulfoxide (DMSO) to prepare each 50 mmol/L solution, which was preserved at −80° C.
The amount of IL-10 production in the control and the example compounds was measured to evaluate the inhibitory effect on IL-10 production of the example compounds of the present invention.
(1) MT2 cells are suspended in RPMI1640 medium (hereinafter referred to as “the medium”) supplemented with 10% fetal calf serum (FCS) and 1% penicillin/streptomycin (P/S) to give 3×10^5 cells/mL suspension, and 1 mL of the suspension was added to each well of a 24-well plate. […] The cell cultures were incubated 48±2 hours in a CO2 incubator (under a condition of 37° C., 5 CO2). DMSO was diluted 50-fold with the medium, and 20 μL of the diluent was added to the well to make a control of compounds 1-7. In addition, DMSO was diluted 50-fold with the medium, and 25.0 μL of the diluent was added to the well to make a control of compounds 8-17.
(2) A piece of the cell culture was sampled to count cells with a cell counter (BIO RAD TC-20). The cell culture was centrifuged at 300×g for 5 minutes and the supernatant was collected as a sample for IL-10 measurement. When not measured within a day, it was preserved in a freezer at −80° C.
(3) Human IL-10 ELISA kit II (BD OptEIA) was used on the measurement. The kit contains wells treated with anti-IL-10 antibody (8 wells/strip), Standard/Sample diluent, vials comprising freeze-dried IL-10 Standard (1280 pg/vial), ELISA diluent, 20× Wash Buffer, Detection antibody, Enzyme Concentrate, TMB One Step Substrate Reagent, Stop Solution, and cover sheets.
(4) To a vial containing IL-10 Standard was added […] Standard/Sample diluent, and the vial was stood at room temperature for 15 minutes to be dissolved (Standard sample stock solution 1L-10 concentration: 500 pg/mL).
(5) Standard samples in each concentration for making a standard curve were prepared as follows. Firstly, to 300 μL of the medium was added 300 μL of the standard sample stock solution, and the mixture was mixed with a Voltex mixer (250 pg/mL). Next, 300 μL of the standard sample of 250 pg/mL was added to 300 μL of the medium and the mixture was mixed with a Voltex mixer (125 pg/mL). The same procedures were successively repeated to prepare standard solutions of 62.5, 31.25, 15.625, and 7.8125 pg/mL. As 0 pg/mL standard solution, the medium was used.
(6) A kit containing wells treated with anti-IL-10 antibody (8 wells/strip) was warmed to room temperature and 50 μL of ELISA diluent in the kit was added into each well.
(7) To each well containing ELISA diluent, 100 μL of the standard samples of each concentration and each test sample (diluded 50-100 fold with medium) were added.
(8) After the wells were sealed with a cover sheet and gently tapped, they were left at room temperature for 2 hours.
(9) 20× Wash Buffer was diluted 20-fold with water to prepare 1× Wash Buffer.
(10) After the reaction was done for 2 hours, the solutions in each well were aspirated and washed 5 times with 300 μL of 1× Wash Buffer.
(11) After Enzyme Concentrate (4 μL per 8 wells) was added to Detection antibody (1 ml per 8 wells), the solution was mixed by a Vortex mixer and then a necessary amount of Working Detector was prepared.
(12) 100 μL of Working Detector was added to each well, covered with a cover sheet, and the wells were left at room temperature for an hour.
(13) After the reaction was done for an hour, the solutions in wells were aspirated and washed 7 times with 300 μL of 1× Wash Buffer. […]

The test system of another experiment is CTLA-4. Nature of the experiment: Intracellular staining of MT2 cells with fluorescence-labeled anti-CTLA-4 antibody and measurement by flow cytometry. The class given is cell-based, human. The conditions noted are these: 48±2 hours; for Peak MFI of CTLA-4: isotype IgG2a subtracted, average of n=3. As for the experimental part: as §1, §2
(1) MT2 cells were suspended in RPMI1640 medium (hereinafter referred to as “the medium”) supplemented with 10% fetal calf serum (FCS) and 1° penicillin/streptomycin (P/S) to give 3×10^5 cells/mL suspension and 3 mL of the suspension was added to each well of a 6-well plate. To each well were added 0.6 or 1.2 μL of the test compound solutions (compounds 1, 2, and 4), 0.75 or 1.5 μL of the test compound solution (compound 9), and 1.5 μL of the test compound solutions (compounds 8 and 10-17), and the cell cultures were incubated in a CO2 gas incubator (under 37° C., 5% CO2) and cultured for 48±2 hours. As a control of compound 1, 2 and 4, only 1.2 μL of DMSO was added to the well. In addition, as a control of compound 8-17, only 1.5 μL of DMSO was added to the well.
(2) A piece of the cell culture was sampled to count cells with a cell counter (BIO RAD TC-20). The cell culture was centrifuged at 300×g for 5 min, and the supernatant was removed. The residue was suspended in phosphate buffered saline (supplemented with 1% bovine serum albumin (BSA), without calcium and magnesium) (1% BSA/PBS) to adjust the concentration of cells to 5-10×10^6 cells/mL.
(3) To 5 ml tube, each 50 μL of the cell suspension was added.
(4) Foxp3/Transcription Factor Fix/Perm Concentrate (4×) (Cat. No. TNB-1020-L050) (Solution A) in FOXP3/Transcription Factor Staining kit (TONBO biosciences) was diluted with Foxp3/Transcription Factor Fix/Perm Diluent (1×) (Cat. No. TNB-1022-L160) (for dilution of Solution A) to prepare 1× Solution A.
(5) 1 mL of 1× Solution A was added to each tube and mixed by gentle pipetting. Subsequently, it was left at room temperature for 30 min, centrifuged at 300×g for […], and the supernatant was discarded.
(6) Flow Cytometry Perm Buffer (10×) (Cat. No. TNB-1213-L150) (Solution B) in the kit was diluted 10-fold with water to prepare 1× Solution B.
(7) 2 mL of 1× Solution B was added to the tube and centrifuged at 300×g for 5 min. The supernatant was discarded. 2 μL of 2% normal mouse serum/PBS was added to the tube and the tube was gently pipetted. Subsequently, it was left at room temperature for 15 min.
(8) In the CTLA-4 measurement, 20 μL of anti-CTLA-4 antibody (BECKMAN COULTER, CD152-PE clone BN13I M2282) or mouse IgG2a (BECKMAN COULTER, IgG2a (Mouse)-PE A09142) for the control was added to the tube and the tube was gently stirred. Subsequently, it was left in the dark at room temperature for 30 min, and 2 mL of the 1× Solution B was added thereto, the mixture was centrifuged at 300×g for 5 min, and the supernatant was discarded. 2 mL of the 1× Solution B was added to the tube again, the mixture was centrifuged at 300×g for 5 min, and the supernatant was discarded.
(9) Within 2 hours after the solution in the tube was suspended in 0.5 mL of 1% BSA/PBS, and the fluorescence at 577 nm was measured with 488 nm excitation with a flow cytometer (Sony: Cell Sorter SH800). The results were analyzed with software, FlowJo (Tree Star Inc.). The mean peak fluorescence intensity (MFI) of CTLA-4 and mean peak fluorescence intensity of isotype control IgG2a were calculated from histgrams of the measured fluorescence intensity and number of cells, and mean fluorescence intensity of IgG2a was subtracted from that of CTLA-4. Experiments were conducted in n=3, and the average values were shown.

The mark [1] stands for this setting: Homo sapiens, 48 h, 25.0 μmol/L, DMSO control = 100%, read-out: % against control (CTLA-4 expression).

As for `COC(=O)C1=CN2CCc3c([nH]c4ccc(O)cc34)[C@@H]2[C@@H]2[C@@H](C)[C@@H](O)C[C@H]12` [Compound 16], in the experiment on IL-10 (12.5 μmol/L), the “IL-10 (ng/10^6 cells) ± standard deviate (n = 3)” value worked out at 9.8 ± 0.3 ng/10^6 cells and the activity at 12.5 µM stood at 88.9%. Moreover, in the experiment on IL-10 (25.0 μmol/L), the “IL-10 (ng/10^6 cells) ± standard deviate (n = 3)” value was 8.6 ± 0.1 ng/10^6 cells and the activity at 25 µM was 77.9%. Also, in the experiment with CTLA-4 (25.0 μmol/L), the “Peak MFI of CTLA-4” value is listed as 529. Moreover, in the experiment on CTLA-4 (setting [1]), the activity at 25 µM stood at 70.3%.
Consider `COC(=O)C1=CN(CCc2c[nH]c3ccccc23)C=C2[C@@H]1CC(OC)O[C@H]2C` (stereo partly drawn) [Compound 3], for which, in the experiment with IL-10 (10 μmol/L), the “IL-10 (ng/10^6 cells) ± standard deviate (n = 3)” value worked out at 14.8 ± 0.3 ng/10^6 cells and the activity at 10 µM is 80%. In the experiment with IL-10 (20 μmol/L), the “IL-10 (ng/10^6 cells) ± standard deviate (n = 3)” value was 11.8 ± 0.3 ng/10^6 cells and the activity at 20 µM stood at 63.7%.
With `COC(=O)C1=CN2CCc3c([nH]c4ccc(Br)cc34)[C@@H]2[C@@H]2[C@@H](C)[C@@H](O)C[C@H]12` [Compound 13], in the experiment on IL-10 (12.5 μmol/L), the “IL-10 (ng/10^6 cells) ± standard deviate (n = 3)” value stood at 7.7 ± 0.6 ng/10^6 cells and the activity at 12.5 µM was 81.2%. For the same molecule, in the experiment with IL-10 (25.0 μmol/L), the “IL-10 (ng/10^6 cells) ± standard deviate (n = 3)” value is given as 4.2 ± 0.2 ng/10^6 cells and the activity at 25 µM is 44%. In addition, in the experiment with CTLA-4 (25.0 μmol/L), the “Peak MFI of CTLA-4” value came out at 775. Moreover, the activity at 25 µM in the experiment on CTLA-4 (setting [1]) was found to be 91.6%.
`COC(=O)C1=CN2CCc3c([nH]c4ccc(OC)cc34)[C@@H]2[C@@H]2[C@@H](C)[C@@H](O)C[C@H]12` [Compound 10]: in the experiment on IL-10 (12.5 μmol/L), the “IL-10 (ng/10^6 cells) ± standard deviate (n = 3)” value was determined as 8.8 ± 0.4 ng/10^6 cells and the activity at 12.5 µM came out at 93.5%. Further, in the experiment with IL-10 (25.0 μmol/L), the “IL-10 (ng/10^6 cells) ± standard deviate (n = 3)” value turned out to be 5.6 ± 0.3 ng/10^6 cells and the activity at 25 µM was 59.6%. In the experiment on CTLA-4 (25.0 μmol/L), the “Peak MFI of CTLA-4” value was determined as 570. The activity at 25 µM with CTLA-4 (setting [1]) was 56.3%.
Take `COC(=O)C1=CN2CCc3c([nH]c4c(C)cccc34)[C@@H]2[C@@H]2[C@@H](C)[C@@H](O)C[C@H]12` [Compound 11]: the “IL-10 (ng/10^6 cells) ± standard deviate (n = 3)” value with IL-10 (12.5 μmol/L) was 7.4 ± 0.2 ng/10^6 cells; with IL-10 (25.0 μmol/L) it was 5.6 ± 0.3 ng/10^6 cells. Further, the activity at 12.5 µM with IL-10 (12.5 μmol/L) turned out to be 78.2%. Moreover, the activity at 25 µM in the experiment on IL-10 (25.0 μmol/L) came out at 55.4%; with CTLA-4 (setting [1]) it was 59.5%. In the experiment on CTLA-4 (25.0 μmol/L), the “Peak MFI of CTLA-4” value was determined as 602.
Turning to `COC(=O)C1=CN2CCc3c([nH]c4ccccc34)[C@H]2[C@@H]2C(CO)=CC[C@H]12` [Compound 4], the entries for the “IL-10 (ng/10^6 cells) ± standard deviate (n = 3)” value with IL-10 (10 μmol/L) and in the experiment with IL-10 (20 μmol/L) were 8.0 ± 0.2 ng/10^6 cells and 4.3 ± 0.5 ng/10^6 cells, respectively. Also, the activity at 10 µM was 42.9% in the experiment with IL-10 (10 μmol/L) and 93.4% in the experiment with CTLA-4 (Homo sapiens, 48 h, 10 μmol/L, DMSO control = 100%, read-out: % against control (CTLA-4 expression)). Besides, the activity at 20 µM with IL-10 (20 μmol/L) came to 23%; in the experiment on CTLA-4 (Homo sapiens, 48 h, 20 μmol/L, DMSO control = 100%, read-out: % against control (CTLA-4 expression)), 72.9%. The “Peak MFI of CTLA-4” value was 796.0 in the experiment with CTLA-4 (10 μmol/L) and 621.0 in the experiment with CTLA-4 (20 μmol/L).
On to `COC(=O)C1=CN2CCc3c([nH]c4ccccc34)[C@@H]2[C@@]2(O)C(CO)=CC[C@H]12` [Compound 5], for which, in the experiment with IL-10 (10 μmol/L), the “IL-10 (ng/10^6 cells) ± standard deviate (n = 3)” value came out at 19.7 ± 0.2 ng/10^6 cells and the activity at 10 µM was 106%. Besides, in the experiment with IL-10 (20 μmol/L), the “IL-10 (ng/10^6 cells) ± standard deviate (n = 3)” value turned out to be 14.9 ± 0.4 ng/10^6 cells and the activity at 20 µM was found to be 80.5%.
For `COC(=O)C1=CN(CCc2c[nH]c3ccccc23)C(O)[C@H]2[C@@H]1C=CC2(O)CO` (stereo partly drawn) [Compound 6], in that order: 17.6 ± 0.7 ng/10^6 cells, 95.2%, 15.2 ± 0.4 ng/10^6 cells and 81.8%.
In the same order, the values of `CC1C(C=O)=C2CCOC(=O)C2=CN1CCc1c[nH]c2ccccc12` (stereo not drawn) [Compound 7] are 17.9 ± 0.6 ng/10^6 cells, 96.5%, 15.4 ± 0.4 ng/10^6 cells and 83.1%.
